From patent publication US4345938A, “Herbicidal 2-haloacetanilides” (Monsanto Company, priority 1980, dated 1982)
Where two headings read alike, the source gives them in different places.

Key:
Format in all cases: in vivo
Rice = assay: Field transplant rice test, applied 0 DAT, rice injury; details: Oryza sativa, 0 h, read-out: Percent Inhibition, Rice; for inhibition at 375 g/ha: 0.375 Kg/Ha; for inhibition at 750 g/ha: 0.75 Kg/Ha; for inhibition at 1500 g/ha: 1.5 Kg/Ha; for inhibition at 3000 g/ha: 3.0 Kg/Ha
Method: (§1) In further comparative tests, a preferred compound of this invention (Example 1) was tested in the field with prior art Compounds A-D. These tests were conducted under conditions reflecting herbicide application times generally favorable to all herbicides in the test. The timing of application of herbicides to transplant rice is very important, whether, as in some instances, prior to transplanting the rice; in other instances, at the time of transplanting or else after transplanting. Application times are conventionally referred to as "days before transplant" (DBT) or "days after transplant" ("DAT"). The field test data in Table IV was obtained from a test in which the herbicides were applied at the time of transplant, i.e., "0 DAT", with observations being made weekly up to six weeks after transplant ("WAT") beginning at two weeks after transplant; for illustrative and representative purposes, only the early, middle and late period observations, i.e., 2 WAT, 4 WAT and 6 WAT, are shown in Table IV. The data in Table IV is for rates of application common to all herbicides in the test, i.e., from 3.0 kg/ha (2.67 lb/A) down to 0.375 kg/ha (0.34 lb/A). All herbicides were applied at their actual or expected use rates, i.e., as granules containing 2.5% by weight herbicide for the compound of Example 1, Compounds B, C and D and 5.0% by weight for Compound A.

Monochoria vaginalis = assay: Field transplant rice test, applied 0 DAT, MV; details: Pontederia vaginalis, 0 h, read-out: Percent Inhibition, MV; for inhibition at 375 g/ha: 0.375 Kg/Ha; for inhibition at 750 g/ha: 0.75 Kg/Ha; for inhibition at 1500 g/ha: 1.5 Kg/Ha; for inhibition at 3000 g/ha: 3.0 Kg/Ha
Method: (§2) The test data in Table III for all compounds was obtained under identical test conditions. The weeds used in the tests herein have the following abbreviations in the tables: Echinochloa crus-galli (EC), Monochloria vaginalis (MV), Cyperus Serotinus (CS), Eleocharis Kuroguwai (EK) and Sagittaria trifolia (ST).
as §1

Cyperus serotinus = assay: Field transplant rice test, applied 0 DAT, CS; details: 0 h, read-out: Percent Inhibition, CS; for inhibition at 375 g/ha: 0.375 Kg/Ha; for inhibition at 750 g/ha: 0.75 Kg/Ha; for inhibition at 1500 g/ha: 1.5 Kg/Ha; for inhibition at 3000 g/ha: 3.0 Kg/Ha
Method: as §2, §1

Eleocharis kuroguwai = assay: Field transplant rice test, applied 0 DAT, EK; details: 0 h, read-out: Percent Inhibition, EK; for inhibition at 375 g/ha: 0.375 Kg/Ha; for inhibition at 750 g/ha: 0.75 Kg/Ha; for inhibition at 1500 g/ha: 1.5 Kg/Ha; for inhibition at 3000 g/ha: 3.0 Kg/Ha
Method: as §2, §1

Sagittaria trifolia [1] = assay: Field transplant rice test, applied 0 DAT, ST; details: 0 h, read-out: Percent Inhibition, ST; for inhibition at 375 g/ha: 0.375 Kg/Ha; for inhibition at 750 g/ha: 0.75 Kg/Ha; for inhibition at 1500 g/ha: 1.5 Kg/Ha; for inhibition at 3000 g/ha: 3.0 Kg/Ha
Method: as §2, §1

Sagittaria trifolia [2] = assay: Field transplant rice test, applied 9 DAT, ST; details: 216 h, read-out: Percent Inhibition, ST; for inhibition at 375 g/ha: 0.375 Kg/Ha; for inhibition at 750 g/ha: 0.75 Kg/Ha; for inhibition at 1500 g/ha: 1.5 Kg/Ha; for inhibition at 3000 g/ha: 3.0 Kg/Ha
Method: as §2, §1
In Table V are presented field data showing the relative performance of the compound of Example 1 and Compounds A-D applied 9 DAT, with observations being made weekly from 3 WAT to 7 WAT; again, for illustrative and representative purposes, only the early, middle and late period observations are reported in Table V, the herbicide rates and concentrations of active ingredients the same as is shown in Table IV.

CCCCOCCN(C(=O)CCl)c1c(CC)cccc1CC [Compound B, 2',6'-diethyl-N-(n-butoxyethyl)-2-chloroacetanilide]
inhibition at 375 g/ha (Rice; 2 WAT): 7% | inhibition at 375 g/ha (Rice; 4 WAT): 3% | inhibition at 375 g/ha (Rice; 6 WAT): 7% | inhibition at 750 g/ha (Rice; 2 WAT): 3% | inhibition at 750 g/ha (Rice; 4 WAT): 2% | inhibition at 750 g/ha (Rice; 6 WAT): 3% | inhibition at 1500 g/ha (Rice; 2 WAT): 10% | inhibition at 1500 g/ha (Rice; 4 WAT): 3% | inhibition at 1500 g/ha (Rice; 6 WAT): 0% | inhibition at 3000 g/ha (Rice; 2 WAT): 7% | inhibition at 3000 g/ha (Rice; 4 WAT): 2% | inhibition at 3000 g/ha (Rice; 6 WAT): 3% | inhibition at 375 g/ha (Monochoria vaginalis; 2 WAT): 97% | inhibition at 375 g/ha (Monochoria vaginalis; 4 WAT): 90% | inhibition at 375 g/ha (Monochoria vaginalis; 6 WAT): 80% | inhibition at 750 g/ha (Monochoria vaginalis; 2 WAT): 95% | inhibition at 750 g/ha (Monochoria vaginalis; 4 WAT): 98% | inhibition at 750 g/ha (Monochoria vaginalis; 6 WAT): 100% | inhibition at 1500 g/ha (Monochoria vaginalis; 2 WAT): 98% | inhibition at 1500 g/ha (Monochoria vaginalis; 4 WAT): 100% | inhibition at 1500 g/ha (Monochoria vaginalis; 6 WAT): 100% | inhibition at 3000 g/ha (Monochoria vaginalis; 2 WAT): 100% | inhibition at 3000 g/ha (Monochoria vaginalis; 4 WAT): 100% | inhibition at 3000 g/ha (Monochoria vaginalis; 6 WAT): 97% | inhibition at 375 g/ha (Cyperus serotinus; 2 WAT): 62% | inhibition at 375 g/ha (Cyperus serotinus; 4 WAT): 55% | inhibition at 375 g/ha (Cyperus serotinus; 6 WAT): 3% | inhibition at 750 g/ha (Cyperus serotinus; 2 WAT): 70% | inhibition at 750 g/ha (Cyperus serotinus; 4 WAT): 53% | inhibition at 750 g/ha (Cyperus serotinus; 6 WAT): 12% | inhibition at 1500 g/ha (Cyperus serotinus; 2 WAT): 82% | inhibition at 1500 g/ha (Cyperus serotinus; 4 WAT): 83% | inhibition at 1500 g/ha (Cyperus serotinus; 6 WAT): 45% | inhibition at 3000 g/ha (Cyperus serotinus; 2 WAT): 72% | inhibition at 3000 g/ha (Cyperus serotinus; 4 WAT): 62% | inhibition at 3000 g/ha (Cyperus serotinus; 6 WAT): 37% | inhibition at 375 g/ha (Eleocharis kuroguwai; 2 WAT): 48% | inhibition at 375 g/ha (Eleocharis kuroguwai; 4 WAT): 37% | inhibition at 375 g/ha (Eleocharis kuroguwai; 6 WAT): 7% | inhibition at 750 g/ha (Eleocharis kuroguwai; 2 WAT): 63% | inhibition at 750 g/ha (Eleocharis kuroguwai; 4 WAT): 42% | inhibition at 750 g/ha (Eleocharis kuroguwai; 6 WAT): 0% | inhibition at 1500 g/ha (Eleocharis kuroguwai; 2 WAT): 73% | inhibition at 1500 g/ha (Eleocharis kuroguwai; 4 WAT): 65% | inhibition at 1500 g/ha (Eleocharis kuroguwai; 6 WAT): 17% | inhibition at 3000 g/ha (Eleocharis kuroguwai; 2 WAT): 100% | inhibition at 3000 g/ha (Eleocharis kuroguwai; 4 WAT): 94% | inhibition at 3000 g/ha (Eleocharis kuroguwai; 6 WAT): 72% | inhibition at 375 g/ha (Sagittaria trifolia [1]; 2 WAT): 27% | inhibition at 375 g/ha (Sagittaria trifolia [1]; 4 WAT): 10% | inhibition at 375 g/ha (Sagittaria trifolia [1]; 6 WAT): 5% | inhibition at 750 g/ha (Sagittaria trifolia [1]; 2 WAT): 27% | inhibition at 750 g/ha (Sagittaria trifolia [1]; 4 WAT): 15% | inhibition at 750 g/ha (Sagittaria trifolia [1]; 6 WAT): 7% | inhibition at 1500 g/ha (Sagittaria trifolia [1]; 2 WAT): 62% | inhibition at 1500 g/ha (Sagittaria trifolia [1]; 4 WAT): 12% | inhibition at 1500 g/ha (Sagittaria trifolia [1]; 6 WAT): 7% | inhibition at 3000 g/ha (Sagittaria trifolia [1]; 2 WAT): 32% | inhibition at 3000 g/ha (Sagittaria trifolia [1]; 4 WAT): 30% | inhibition at 3000 g/ha (Sagittaria trifolia [1]; 6 WAT): 13% | inhibition at 375 g/ha (Sagittaria trifolia [2]; 3 WAT): 5% | inhibition at 375 g/ha (Sagittaria trifolia [2]; 5 WAT): 2% | inhibition at 375 g/ha (Sagittaria trifolia [2]; 7 WAT): 5% | inhibition at 750 g/ha (Sagittaria trifolia [2]; 3 WAT): 38% | inhibition at 750 g/ha (Sagittaria trifolia [2]; 5 WAT): 12% | inhibition at 750 g/ha (Sagittaria trifolia [2]; 7 WAT): 10% | inhibition at 1500 g/ha (Sagittaria trifolia [2]; 3 WAT): 40% | inhibition at 1500 g/ha (Sagittaria trifolia [2]; 5 WAT): 25% | inhibition at 1500 g/ha (Sagittaria trifolia [2]; 7 WAT): 13% | inhibition at 3000 g/ha (Sagittaria trifolia [2]; 3 WAT): 42% | inhibition at 3000 g/ha (Sagittaria trifolia [2]; 5 WAT): 25% | inhibition at 3000 g/ha (Sagittaria trifolia [2]; 7 WAT): 12%
